From US20230323414A1, “ENZYME DEHYDROXYLATING HYDROXYL GROUP AT 9-POSITION OF UROLITHIN COMPOUND” (DAICEL CORPORATION, priority 2020, published 2023)

Tested on: enzyme dehydroxylating the hydroxyl group at the 9-position of urolithins
Test: Effect of cofactor on enzyme activity (DEAE fraction)
Format: biochemical, Clostridium bolteae JCM 12243 strain
Conditions: for Effect of cofactor on enzyme activity: cofactor individually added; for Relative activity: control without cofactor = 100%, DEAE fraction
Method: A 100 mM Gly/NaOH buffer (pH 9.5) containing 0.05 mg/mL of urolithin C, 5 mM of NADH, and 1 μM of DTT was mixed with a reaction solution for measuring the enzyme activity of each fraction corresponding to 40 mL of the medium to give a total volume of 500 μL, and the mixture was placed in a 1.5-mL tube. A gas phase in an anaerobic chamber was used as a gas phase (Vinyl Anaerobic Chamber available from Coy Labs), and the mixture was reacted at 45° C. for 13 to 18 hours. After completion of the reaction, 200 μL of N,N-dimethylacetamide containing 10% -formic acid was added and mixed. Then, the mixture was centrifuged (10,000 rpm. 4° C., 3 minutes), and the resulting supernatant was analyzed by HPLC.
Solutions were prepared to contain a cofactor in a concentration as shown in Table 2 in the reaction solution for measuring the enzyme activity described in Experimental Example 5, and urolithin A produced after the reaction was quantified. The DEAE fraction was used as the enzyme.
In addition, FAD refers to flavin adenine dinucleotide.

| Effect of cofactor on enzyme activity | Relative activity (one cofactor at 10 mM) [%] | Relative activity (one cofactor at 0.2 mM) [%] | SMILES |
| --- | --- | --- | --- |
| Increase in activity | 186 |  | NC(=O)C1=CN([C@@H]2O[C@H](COP(=O)(O)OP(=O)(O)OC[C@H]3O[C@@H](n4cnc5c(N)ncnc54)[C@H](O)[C@@H]3O)[C@@H](O)[C@H]2O)C=CC1 [No. 2, reduced nicotinamide adenine dinucleotide] |
| Increase in activity | 161 |  | NC(=O)C1=CN([C@@H]2O[C@H](COP(=O)(O)OP(=O)(O)OC[C@H]3O[C@@H](n4cnc5c(N)ncnc54)[C@H](OP(=O)(O)O)[C@@H]3O)[C@@H](O)[C@H]2O)C=CC1 [No. 3, reduced nicotinamide adenine dinucleotide phosphate] |
|  |  | 95 | Cc1cc2nc3c(=O)[nH]c(=O)nc-3n(C[C@H](O)[C@H](O)[C@H](O)COP(=O)(O)OP(=O)(O)OC[C@H]3O[C@@H](n4cnc5c(N)ncnc54)[C@H](O)[C@@H]3O)c2cc1C [No. 4, flavin adenine dinucleotide] |
|  |  | 96 | Cc1cc2nc3c(=O)[nH]c(=O)nc-3n(C[C@H](O)[C@H](O)[C@H](O)COP(=O)(O)O)c2cc1C [No. 5, flavin mononucleotide] |
